Laboratory results: EPA's ToxRefDB 2

Tests used:
rat [1] = details: Subchronic oral toxicity in rodents, sprague dawley, Gavage/Intubation, dose end: 90 day, group: systemic, systemic / clinical chemistry / calcium / calcium + systemic / clinical chemistry / cholesterol / cholesterol + systemic / clinical …
rat [2] = details: Sub-acute repeat dose toxicity; Oral; Gavage/Intubation; dose end: 14 day; group: systemic; systemic / in life observation / body weight / body weight gain + systemic / in life observation / clinical signs / reduced activity + …
rat [3] = details: Fertility (Segment I); sprague dawley; Oral; Gavage/Intubation; dose end: 1 generation; group: parental; systemic / in life observation / body weight / body weight + systemic / in life observation / clinical signs / salivation + systemic / in …
rabbit [4] = details: Sub-acute repeat dose toxicity; new zealand white; Oral; Gavage/Intubation; dose end: 5 day; group: systemic; systemic / in life observation / food consumption / food consumption
rabbit [5] = details: Sub-acute repeat dose toxicity, new zealand white, Oral, Gavage/Intubation, dose end: 13 day
dog [6] = details: Sub-acute repeat dose toxicity, beagle, Oral, Gavage/Intubation, dose end: 8 day, group: systemic
rat [7] = details: Sub-acute repeat dose toxicity; Oral; Gavage/Intubation; dose end: 19 day; group: systemic; systemic / in life observation / body weight / body weight + systemic / in life observation / clinical signs / salivation
mouse [8] = details: Subchronic oral toxicity in rodents, Feed, dose end: 92 day, group: systemic
rat [9] = details: Subchronic oral toxicity in rodents, sprague dawley, Feed, dose end: 92 day, group: systemic
rat [10] = details: Prenatal developmental toxicity study, sprague dawley, Oral, Gavage/Intubation, dose end: 18 GD
dog [11] = details: Subchronic oral toxicity in nonrodent, beagle, Gavage/Intubation, dose end: 98 day, group: systemic
rat [12] = details: Sub-acute repeat dose toxicity; Oral; Gavage/Intubation; dose end: 38 day; group: systemic; systemic / clinical chemistry / albumin / albumin + systemic / clinical chemistry / creatinine / creatinine + systemic / clinical chemistry…
rat [13] = details: Peri- and post-natal toxicity study (Segment III), Oral, Gavage/Intubation, dose end: 1 generation
rat [14] = details: Fertility (Segment I); sprague dawley; Oral; Gavage/Intubation; dose end: 1 generation; group: parental; systemic / in life observation / body weight / body weight + systemic / in life observation / clinical signs / salivation + systemic / in …; remark: listed apart in the source
mouse [15] = details: Sub-acute repeat dose toxicity, Oral, Feed, dose end: 15 day, group: systemic
rat [16] = details: Sub-acute repeat dose toxicity, sprague dawley, Oral, Feed, dose end: 15 day, group: systemic
rabbit [17] = details: Prenatal developmental toxicity study, new zealand white, Oral, Gavage/Intubation, dose end: 19 GD, group: maternal
rat [18] = details: Subchronic oral toxicity in rodents, sprague dawley, Feed, dose end: 13 week, group: systemic, systemic / clinical chemistry / urea nitrogen / urea nitrogen + systemic / clinical chemistry / creatinine / creatinine + systemic / …
rat [19] = details: Combined chronic toxicity/carcinogenicity; other; Oral; Feed; dose end: 102 week; group: systemic; systemic / pathology microscopic / kidney / degeneration + systemic / pathology microscopic / kidney / dilatation + systemic / pathology …
dog [20] = details: Subchronic oral toxicity in nonrodent, beagle, Feed, dose end: 90 day, group: systemic
dog [21] = details: Chronic toxicity, beagle, Oral, Feed, dose end: 52 week, group: systemic
rat [22] = details: Subchronic oral toxicity in rodents, sprague dawley, Feed, dose end: 90 day, group: systemic
mouse [23] = details: Carcinogenicity, cd1, Oral, Feed, dose end: 19 month, group: systemic
[24] = group: maternal, reproductive / reproductive performance / aborted / aborted
[25] = group: systemic, systemic / in life observation / body weight / body weight gain + systemic / in life observation / food consumption / food consumption
[26] = group: systemic, systemic / in life observation / body weight / body weight gain + systemic / in life observation / food consumption / food consumption + …
[27] = systemic / hematology / leukocyte (wbc) count differential / leukocyte (wbc) + systemic / in life observation / clinical signs / abnormal …
[28] = systemic / in life observation / clinical signs / abnormal feces + systemic / in life observation / clinical signs / salivation
[29] = systemic / clinical chemistry / cholesterol / cholesterol + systemic / in life observation / body weight / body weight + systemic / clinical…
[30] = systemic / hematology / lymphocyte / lymphocyte
[31] = systemic / in life observation / body weight / body weight
[32] = systemic / in life observation / body weight / body weight + systemic / in life observation / clinical signs / lacrimation or red-colored …
[33] = group: developmental, developmental / developmental malformation / bone / [other] + systemic / in life observation / body weight / fetal weight
[34] = group: maternal, systemic / in life observation / body weight / body weight + systemic / in life observation / clinical signs / salivation + systemic / in …
[35] = systemic / in life observation / clinical signs / salivation
[36] = systemic / in life observation / clinical signs / salivation + systemic / in life observation / clinical signs / emesis
[37] = group: developmental, developmental / developmental landmark / eye opening / eye opening
[38] = group: parental, systemic / in life observation / body weight / body weight + systemic / in life observation / body weight / body weight gain + systemic / in…
[39] = systemic / in life observation / body weight / body weight + systemic / in life observation / clinical signs / hunched posture + systemic / …
[40] = systemic / in life observation / body weight / body weight + systemic / in life observation / clinical signs / alopecia + systemic / in life…
[41] = systemic / in life observation / food consumption / food consumption
[42] = systemic / in life observation / food consumption / food consumption + reproductive / reproductive performance / aborted / aborted + …
[43] = systemic / organ weight / ovary / absolute + systemic / organ weight / ovary / relative to body weight + systemic / organ weight / ovary / …
[44] = systemic / in life observation / body weight / body weight gain + systemic / clinical chemistry / alkaline phosphatase (alp/alk) / alkaline …

CS(=O)(=O)O.Cc1nccn1-c1ccc(Sc2cccc(C3(C(N)=O)CCOCC3)c2)cc1
LEL (rat [1]): 20 mg/kg/day | LOAEL (rat [1]): > 150 mg/kg/day | NEL (rat [1]): 5 mg/kg/day | NOAEL (rat [1]): ≥ 150 mg/kg/day | LEL (rat [2]): 200 mg/kg/day | LOAEL (rat [2]): > 200 mg/kg/day | NEL (rat [2]): < 200 mg/kg/day | NOAEL (rat [2]): ≥ 200 mg/kg/day | LEL (rat [3]): 50 mg/kg/day | LOAEL (rat [3]): > 50 mg/kg/day | NEL (rat [3]): 15 mg/kg/day | NOAEL (rat [3]): ≥ 50 mg/kg/day | LEL (rabbit [4]): 10 mg/kg/day | LOAEL (rabbit [4]): > 100 mg/kg/day | NEL (rabbit [4]): < 10 mg/kg/day | NOAEL (rabbit [4]): ≥ 100 mg/kg/day | LEL (rabbit [5]; [24]): 50 mg/kg/day | LOAEL (rabbit [5]; [24]): > 200 mg/kg/day | NEL (rabbit [5]; [24]): 10 mg/kg/day | NOAEL (rabbit [5]; [24]): ≥ 200 mg/kg/day | LEL (rabbit [5]; [25]): 10 mg/kg/day | NEL (rabbit [5]; [25]): < 10 mg/kg/day | LOAEL (rabbit [5]; [26]): > 200 mg/kg/day | NOAEL (rabbit [5]; [26]): ≥ 200 mg/kg/day | LOAEL (dog [6]; [27]): > 60 mg/kg/day | NOAEL (dog [6]; [27]): ≥ 60 mg/kg/day | LEL (dog [6]; [28]): 3 mg/kg/day | NEL (dog [6]; [28]): < 3 mg/kg/day | LEL (rat [7]): 100 mg/kg/day | LOAEL (rat [7]): > 100 mg/kg/day | NEL (rat [7]): < 100 mg/kg/day | NOAEL (rat [7]): ≥ 100 mg/kg/day | LOAEL (mouse [8]; [29]): > 600 mg/kg/day | NOAEL (mouse [8]; [29]): ≥ 600 mg/kg/day | LEL (mouse [8]; [30]): 30 mg/kg/day | NEL (mouse [8]; [30]): < 30 mg/kg/day | LEL (rat [9]; [31]): 10 mg/kg/day | NEL (rat [9]; [31]): < 10 mg/kg/day | LOAEL (rat [9]; [32]): > 100 mg/kg/day | NOAEL (rat [9]; [32]): ≥ 100 mg/kg/day | LEL (rat [10]; [33]): 50 mg/kg/day | LOAEL (rat [10]; [33]): > 50 mg/kg/day | NOAEL (rat [10]; [33]): ≥ 50 mg/kg/day | LOAEL (rat [10]; [34]): > 50 mg/kg/day | NEL (rat [10]; [34]): 5 mg/kg/day | NOAEL (rat [10]; [34]): ≥ 50 mg/kg/day | LEL (rat [10]; group: maternal, systemic / in life observation / body weight / body weight + systemic / in life observation / food consumption / food consumption): 15 mg/kg/day | LEL (dog [11]; [35]): 3 mg/kg/day | NEL (dog [11]; [35]): < 3 mg/kg/day | LOAEL (dog [11]; [36]): > 30 mg/kg/day | NOAEL (dog [11]; [36]): ≥ 30 mg/kg/day | LEL (rat [12]): 250 mg/kg/day | LOAEL (rat [12]): > 250 mg/kg/day | NEL (rat [12]): < 250 mg/kg/day | NOAEL (rat [12]): ≥ 250 mg/kg/day | LEL (rat [13]; [37]): 50 mg/kg/day | LOAEL (rat [13]; [37]): > 50 mg/kg/day | NOAEL (rat [13]; [37]): ≥ 50 mg/kg/day | LEL (rat [13]; [38]): 15 mg/kg/day | LOAEL (rat [13]; [38]): > 50 mg/kg/day | NEL (rat [13]; [38]): 5 mg/kg/day | NOAEL (rat [13]; [38]): ≥ 50 mg/kg/day | LEL (rat [14]): 50 mg/kg/day | LOAEL (rat [14]): > 50 mg/kg/day | NEL (rat [14]): 15 mg/kg/day | NOAEL (rat [14]): ≥ 50 mg/kg/day | LOAEL (mouse [15]; [39]): > 1200 mg/kg/day | NOAEL (mouse [15]; [39]): ≥ 1200 mg/kg/day | LEL (mouse [15]; systemic / in life observation / body weight / body weight + systemic / in life observation / food consumption / food consumption + systemic…): 600 mg/kg/day | LOAEL (rat [16]; [40]): > 600 mg/kg/day | NEL (rat [16]; [40]): 30 mg/kg/day | NOAEL (rat [16]; [40]): ≥ 600 mg/kg/day | LEL (rat [16]; systemic / in life observation / body weight / body weight + systemic / in life observation / food consumption / food consumption): 100 mg/kg/day | LEL (rabbit [17]; [41]): 2 mg/kg/day | NEL (rabbit [17]; [41]): < 2 mg/kg/day | LOAEL (rabbit [17]; [42]): > 25 mg/kg/day | NOAEL (rabbit [17]; [42]): ≥ 25 mg/kg/day

CC1=C(C(=O)Nc2ccccc2)SCCO1 [Carboxin]
LEL (rat [18]): 10 mg/kg/day | LOAEL (rat [18]): 10 mg/kg/day | NEL (rat [18]): < 10 mg/kg/day | NOAEL (rat [18]): < 10 mg/kg/day | LEL (rat [19]): 9 mg/kg/day | LOAEL (rat [19]): 9 mg/kg/day | NEL (rat [19]): 0.8 mg/kg/day | NOAEL (rat [19]): 0.8 mg/kg/day | LOAEL (dog [20]; [43]): 17.7 mg/kg/day | NEL (dog [20]; [43]): 5.9 mg/kg/day | NOAEL (dog [20]; [43]): 9 mg/kg/day | LEL (dog [20]; systemic / pathology microscopic / parathyroid gland / cyst + systemic / pathology microscopic / pituitary gland / cyst): 9 mg/kg/day | LOAEL (dog [21]; systemic / in life observation / body weight / body weight gain): 15 mg/kg/day | NEL (dog [21]; [44]): 1.3 mg/kg/day | NOAEL (dog [21]; [44]): 1.3 mg/kg/day | LEL (dog [21]; systemic / in life observation / body weight / body weight gain + systemic / hematology / mean corpuscular (cell) volume (mcv) / mean …): 15 mg/kg/day | LOAEL (rat [22]; systemic / pathology microscopic / kidney / nephropathy): 10.5 mg/kg/day | NOAEL (rat [22]; systemic / pathology microscopic / kidney / nephropathy + systemic / in life observation / clinical signs / defecation): 5.5 mg/kg/day | LOAEL (mouse [23]; systemic / in life observation / mortality / mortality): 451 mg/kg/day | NOAEL (mouse [23]; systemic / in life observation / mortality / mortality + systemic / pathology microscopic / liver / hypertrophy): 9 mg/kg/day | LEL (mouse [23]; systemic / pathology microscopic / liver / hypertrophy): 385 mg/kg/day | NEL (mouse [23]; systemic / pathology microscopic / liver / hypertrophy + systemic / pathology microscopic / lung / adenoma): 8 mg/kg/day
